ChEMBL document CHEMBL1201862, “PubChem BioAssay data set” (2004)
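Five compound concentrations were applied to cells in 96-well plates for 48 hours; endpoints were derived by simple linear interpolation of the resulting dose-response curve. GI50 marks 50% less growth.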 Active and inactive are the calls of the source. No stated cut-off is given here; in the data, active = GI50 up to about 1.1 µM and inactive = higher.

Tests used:
Assay in all cases: DTP human tumour cell line panel, 48 h
OVCAR-4 = tested on: OVCAR-4
MOLT-4 = tested on: MOLT-4
SW-620 = tested on: SW-620
NCI-H522 = tested on: NCI-H522
IGROV-1 = tested on: IGROV-1
RXF 393 = tested on: RXF 393
LOX IMVI = tested on: LOX IMVI
HOP-62 = tested on: HOP-62
OVCAR-8 = tested on: OVCAR-8
UO-31 = tested on: UO-31
K562 = tested on: K562
SK-MEL-2 = tested on: SK-MEL-2
CCRF-CEM = tested on: CCRF-CEM
HCT-15 = tested on: HCT-15
SNB-19 = tested on: SNB-19
SK-OV-3 = tested on: SK-OV-3
SN12C = tested on: SN12C
HL-60 = tested on: HL-60
SNB-78 = tested on: SNB-78
XF498 = tested on: XF498

SMILES	GI50 (OVCAR-4)	GI50 (MOLT-4)	GI50 (SW-620)	GI50 (NCI-H522)	GI50 (IGROV-1)	GI50 (RXF 393)	GI50 (LOX IMVI)	GI50 (HOP-62)	GI50 (OVCAR-8)	GI50 (UO-31)	GI50 (K562)	GI50 (SK-MEL-2)	GI50 (CCRF-CEM)	GI50 (HCT-15) [µM]	GI50 (SNB-19)	GI50 (SK-OV-3)	GI50 (SN12C)	GI50 (HL-60)	GI50 (SNB-78)	GI50 (XF498)
COc1ccc2oc(=N)c(C(=O)Nc3ccccc3)cc2c1	45.6 µM (inactive)	13.8 µM (inactive)	22 µM (inactive)	2.58 µM (inactive)	17.9 µM (inactive)	17.3 µM (inactive)	31.6 µM (inactive)	15.8 µM (inactive)	19.2 µM (inactive)	45 µM (inactive)	1.26 µM (inactive)	17.2 µM (inactive)	7.23 µM (inactive)	31	25.2 µM (inactive)	10.9 µM (inactive)	36.2 µM (inactive)	–	–	–
COc1cc([C@@H]2c3cc4c(cc3[C@@H](OC3OC5COC(C)OC5C(O)C3O)[C@H]3COC(=O)[C@H]23)OCO4)cc(OC)c1O (stereo partly drawn)	113 µM (inactive)	0.547 µM (active)	6.71 µM (inactive)	6.03 µM (inactive)	31.4 µM (inactive)	14.9 µM (inactive)	2.74 µM (inactive)	1.97 µM (inactive)	11.3 µM (inactive)	42.3 µM (inactive)	–	21.7 µM (inactive)	1.4 µM (inactive)	17.6	–	17.2 µM (inactive)	5.2 µM (inactive)	0.807 µM (active)	46.8 µM (inactive)	8.41 µM (inactive)
COC(=O)C(Cc1cc(OC)c(OC)c(OC)c1)(NC(=O)c1ccccc1)P(=O)(OC)OC (stereo not drawn)	> 100 µM (inactive)	> 100 µM (inactive)	> 100 µM (inactive)	> 100 µM (inactive)	> 100 µM (inactive)	> 100 µM (inactive)	> 100 µM (inactive)	> 100 µM (inactive)	> 100 µM (inactive)	> 100 µM (inactive)	> 100 µM (inactive)	> 100 µM (inactive)	> 100 µM (inactive)	> 100	> 100 µM (inactive)	> 100 µM (inactive)	> 100 µM (inactive)	> 100 µM (inactive)	> 100 µM (inactive)	> 100 µM (inactive)
CCC(C)C1NC(=O)CNC(=O)C2Cc3c([nH]c4cc(O)ccc34)[S+]([O-])CC(NC(=O)CNC1=O)C(=O)NC(CC(=O)O)C(=O)N1CC(O)CC1C(=O)NC(C(C)C(O)CO)C(=O)N2 (stereo not drawn)	2.07 µM (inactive)	3.72 µM (inactive)	36.2 µM (inactive)	0.776 µM (active)	4.39 µM (inactive)	0.579 µM (active)	2.38 µM (inactive)	0.662 µM (active)	3.7 µM (inactive)	1.55 µM (inactive)	3.93 µM (inactive)	2.08 µM (inactive)	6.24 µM (inactive)	10.4	1.3 µM (inactive)	13.2 µM (inactive)	4.63 µM (inactive)	28.6 µM (inactive)	0.664 µM (active)	1.16 µM (inactive)
COc1ccc(CC(N)=O)cc1OC	> 1250 µM (inactive)	> 1250 µM (inactive)	> 1250 µM (inactive)	> 1250 µM (inactive)	> 1250 µM (inactive)	> 1250 µM (inactive)	> 1250 µM (inactive)	> 818 µM (inactive)	198 µM (inactive)	> 1250 µM (inactive)	> 1250 µM (inactive)	> 1250 µM (inactive)	> 1250 µM (inactive)	1090	> 1250 µM (inactive)	> 1250 µM (inactive)	> 1250 µM (inactive)	> 1150 µM (inactive)	> 1250 µM (inactive)	> 879 µM (inactive)
CN(CCO)/N=N/c1n[nH]cc1C(N)=O	> 100 µM (inactive)	> 100 µM (inactive)	> 100 µM (inactive)	> 100 µM (inactive)	> 100 µM (inactive)	> 100 µM (inactive)	> 100 µM (inactive)	–	> 100 µM (inactive)	> 100 µM (inactive)	> 100 µM (inactive)	> 100 µM (inactive)	> 100 µM (inactive)	> 100	> 100 µM (inactive)	> 100 µM (inactive)	> 100 µM (inactive)	> 100 µM (inactive)	> 100 µM (inactive)	> 100 µM (inactive)
CC(=O)NC1C(O)CC(OCCCSCCN)(C(=O)O)OC1C(O)C(O)CO (stereo not drawn)	> 100 µM (inactive)	> 100 µM (inactive)	> 100 µM (inactive)	–	> 100 µM (inactive)	> 100 µM (inactive)	> 100 µM (inactive)	–	> 100 µM (inactive)	–	–	> 100 µM (inactive)	> 100 µM (inactive)	> 100	> 100 µM (inactive)	–	> 100 µM (inactive)	> 100 µM (inactive)	> 100 µM (inactive)	> 100 µM (inactive)
O=[N+]([O-])c1cccc2c1[nH]c1c(-c3ccccc3)nccc12	2.02 µM (inactive)	1.71 µM (inactive)	3.41 µM (inactive)	0.849 µM (active)	1.8 µM (inactive)	2.54 µM (inactive)	2.73 µM (inactive)	1.87 µM (inactive)	3.52 µM (inactive)	1.11 µM (active)	1.99 µM (inactive)	1.07 µM (active)	1.68 µM (inactive)	2.61	3.19 µM (inactive)	2.01 µM (inactive)	2.7 µM (inactive)	1.63 µM (inactive)	–	2.65 µM (inactive)
OCC#CCNCl	> 100 µM (inactive)	> 100 µM (inactive)	> 100 µM (inactive)	> 100 µM (inactive)	> 100 µM (inactive)	> 100 µM (inactive)	> 100 µM (inactive)	> 100 µM (inactive)	> 100 µM (inactive)	> 100 µM (inactive)	> 100 µM (inactive)	> 100 µM (inactive)	> 100 µM (inactive)	> 100	> 100 µM (inactive)	> 100 µM (inactive)	> 100 µM (inactive)	> 100 µM (inactive)	> 100 µM (inactive)	> 53.1 µM (inactive)
